# Laboratory results as given in patent US20250163104A1, “MACROCYCLIC IMMUNOMODULATORS” (priority 2021, published 2025).
# *1 amine or outer side, *2 acyl side, *3 side chain or, on linkers, in order; H or OH if unused. Where a SMILES comes first, the peptide text is derived from it. Bridges are numbered along the chain shown (N, C = ends). [ ]: non-standard residue; d: D form. The star is where a group is joined. ξ: configuration not given here. Phe(4-COOH) = N[C@@H](Cc1ccc(C(=O)O)cc1)C(=O)O; Bip = N[C@@H](Cc1ccc(-c2ccccc2)cc1)C(=O)O; Phe(3-Me) = Cc1cccc(C[C@H](N)C(=O)O)c1; βAsp = O=C(O)[C@H](CC(=O)[*:2])N[*:1]; 4Pal = N[C@@H](Cc1ccncc1)C(=O)O; Cha = N[C@@H](CC1CCCCC1)C(=O)O; Cit = NC(=O)NCCC[C@H](N)C(=O)O; Carboxymethyl = O=C(O)C*; Orn = NCCC[C@H](N)C(=O)O; Pra = C#CC[C@H](N)C(=O)O; Dab = NCC[C@H](N)C(=O)O; Dap = NC[C@H](N)C(=O)O; ξPra = C#CCC(N)C(=O)O
# Biological target: T1, human PD-1 / PD-L1-Ig binding on Jurkat cell line over-expressing human PD-1 (Jurkat-PD-1) (Homo sapiens, UniProt Q15116)
# T1 construct: expressed in transfected cells; host or cells: Jurkat
# Test: Jurkat-PD-1 Cell Binding High-Content Screening Assay (CBA)
# Format: cell-based
# Conditions: Jurkat-PD-1 cells, PE-labeled PD-L1-Ig 20 nM final; read-out: Jurkat HPD1_PDL1 IC50
# Procedure, shortened: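 Compounds were preincubated with Jurkat-hPD-1 cells in DMEM plus 10% fetal calf serum for 2 h at 37° C. Phycoerythrin-labeled PD-L1-Ig (20 nM final) was then added for 1 hour. Cells were fixed in 4% paraformaldehyde with Hoechst 33342, and bound fluorescence was quantified by high-content imaging.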
# T1 sequence (Q15116 25-288): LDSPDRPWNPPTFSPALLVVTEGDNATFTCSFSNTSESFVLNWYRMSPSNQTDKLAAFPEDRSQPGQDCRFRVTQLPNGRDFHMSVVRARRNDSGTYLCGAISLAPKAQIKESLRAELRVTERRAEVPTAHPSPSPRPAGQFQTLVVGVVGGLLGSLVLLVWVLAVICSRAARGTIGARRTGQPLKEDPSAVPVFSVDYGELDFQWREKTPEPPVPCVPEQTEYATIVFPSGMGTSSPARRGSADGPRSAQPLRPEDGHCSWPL
row,Structure (SMILES),IC50
1,C#CCC(NC(=O)[C@H](CCCN)NC(=O)[C@@H]1CSCC(=O)N[C@@H](Cc2ccncc2)C(=O)N[C@@H](Cc2ccc(OCC(=O)O)cc2)C(=O)N[C@@H](CC(=O)O)C(=O)N[C@@H](Cc2c[nH]c3ccccc23)C(=O)N[C@@H](C(C)C)C(=O)N[C@@H](Cc2ccc(-c3ccccc3)cc2)C(=O)N[C@@H]([C@@H](C)CC)C(=O)N[C@@H](CCCN)C(=O)N[C@H](CC(C)C)C(=O)N[C@@H](CCN)C(=O)N[C@@H](CC(C)C)C(=O)N[C@@H](C(C)C)C(=O)N[C@@H]([C@@H](C)O)C(=O)N1)C(N)=O (stereo partly drawn) [Compound 1766] ({CH2CO}-[4Pal]Y(Carboxymethyl)DWV[Bip]I[Orn][dL][Dab]LVTC[Orn][ξPra]-NH2; thioether N-14),31.4 nM
2,C#CCC(NC(=O)[C@H](CCCCN)NC(=O)[C@@H]1CSCC(=O)N[C@@H](Cc2ccncc2)C(=O)N[C@@H](Cc2ccc(OCC(=O)O)cc2)C(=O)N[C@@H](CC(=O)O)C(=O)N[C@@H](Cc2c[nH]c3ccccc23)C(=O)N[C@@H](C(C)C)C(=O)N[C@@H](Cc2ccc(-c3ccccc3)cc2)C(=O)N[C@@H]([C@@H](C)CC)C(=O)N[C@@H](CCCN)C(=O)N[C@H](CC(C)C)C(=O)N[C@@H](CCN)C(=O)N[C@@H](CC(C)C)C(=O)N[C@@H](C(C)C)C(=O)N[C@@H]([C@@H](C)O)C(=O)N1)C(N)=O (stereo partly drawn) [Compound 1767] ({CH2CO}-[4Pal]Y(Carboxymethyl)DWV[Bip]I[Orn][dL][Dab]LVTCK[ξPra]-NH2; thioether N-14),16.7 nM
3,C#CC[C@H](NC(=O)C[C@H](NC(=O)[C@H](CCN)NC(=O)[C@@H]1CSCC(=O)N[C@@H](Cc2ccc(OCC(=O)O)cc2)C(=O)N[C@@H](Cc2ccncc2)C(=O)N[C@@H](CC(=O)O)C(=O)N[C@@H](Cc2cccc(C)c2)C(=O)N[C@@H](C(C)C)C(=O)N[C@@H](Cc2ccc(-c3ccccc3)cc2)C(=O)N[C@@H](CCCNC(N)=O)C(=O)N[C@@H](CCCN)C(=O)N[C@H](CC(C)C)C(=O)N[C@@H](CCN)C(=O)N[C@@H](CC2CCCCC2)C(=O)N[C@@H](C(C)C)C(=O)N[C@@H]([C@@H](C)O)C(=O)N1)C(=O)O)C(N)=O [Compound 1768] ({CH2CO}-Y(Carboxymethyl)[4Pal]D[Phe(3-Me)]V[Bip][Cit][Orn][dL][Dab][Cha]VTC[Dab][βAsp][Pra]-NH2; thioether N-14),10.1 nM
4,C#CC[C@H](NC(=O)C[C@H](NC(=O)[C@H](CCN)NC(=O)[C@@H]1CSCC(=O)N[C@@H](Cc2ccncc2)C(=O)N[C@@H](Cc2ccc(C(=O)O)cc2)C(=O)N[C@@H](CC(=O)O)C(=O)N[C@@H](Cc2c[nH]c3ccccc23)C(=O)N[C@@H](C(C)C)C(=O)N[C@@H](Cc2ccc(-c3ccccc3)cc2)C(=O)N[C@@H]([C@@H](C)CC)C(=O)N[C@@H](CCCN)C(=O)N[C@H](CC(C)C)C(=O)N[C@@H](CCN)C(=O)N[C@@H](CC(C)C)C(=O)N[C@@H](C(C)C)C(=O)N[C@@H]([C@@H](C)O)C(=O)N1)C(=O)O)C(=O)O [Compound 1770] ({CH2CO}-[4Pal][Phe(4-COOH)]DWV[Bip]I[Orn][dL][Dab]LVTC[Dab][βAsp][Pra]-OH; thioether N-14),68.9 nM
5,Cc1cccc(C[C@@H]2NC(=O)[C@H](CC(=O)O)NC(=O)[C@H](Cc3ccc(OCC(=O)O)cc3)NC(=O)[C@H](CN)NC(=O)CSC[C@@H](C(N)=O)NC(=O)[C@H]([C@@H](C)O)NC(=O)[C@H](C(C)C)NC(=O)[C@H](CC3CCCCC3)NC(=O)[C@H](CCC(=O)O)NC(=O)[C@@H](CC(C)C)NC(=O)[C@H](CCCN)NC(=O)[C@H](Cc3ccc(OCC(=O)O)cc3)NC(=O)[C@H](Cc3ccc(-c4ccccc4)cc3)NC(=O)[C@H](Cc3ccc(OCC(=O)O)cc3)NC2=O)c1 [Compound 1775] ({CH2CO}-[Dap]Y(Carboxymethyl)D[Phe(3-Me)]Y(Carboxymethyl)[Bip]Y(Carboxymethyl)[Orn][dL]E[Cha]VTC-NH2; thioether N-14),20.5 nM
6,Cc1cccc(C[C@@H]2NC(=O)[C@H](CC(=O)O)NC(=O)[C@H](Cc3ccc(OCC(=O)O)cc3)NC(=O)[C@H](CN)NC(=O)CSC[C@@H](C(N)=O)NC(=O)[C@H](CCCN)NC(=O)[C@H](C(C)C)NC(=O)[C@H](CC3CCCCC3)NC(=O)[C@H](CCN)NC(=O)[C@@H](CC(C)C)NC(=O)[C@H](CCCN)NC(=O)[C@H](Cc3ccc(OCC(=O)O)cc3)NC(=O)[C@H](Cc3ccc(-c4ccccc4)cc3)NC(=O)[C@H](Cc3ccc(OCC(=O)O)cc3)NC2=O)c1 [Compound 1779] ({CH2CO}-[Dap]Y(Carboxymethyl)D[Phe(3-Me)]Y(Carboxymethyl)[Bip]Y(Carboxymethyl)[Orn][dL][Dab][Cha]V[Orn]C-NH2; thioether N-14),16.6 nM
7,Cc1cccc(C[C@@H]2NC(=O)[C@H](CC(=O)O)NC(=O)[C@H](Cc3ccc(OCC(=O)O)cc3)NC(=O)[C@H](CN)NC(=O)CSC[C@@H](C(N)=O)NC(=O)[C@H](CC(N)=O)NC(=O)[C@H](C(C)C)NC(=O)[C@H](CC3CCCCC3)NC(=O)[C@H](CCN)NC(=O)[C@@H](CC(C)C)NC(=O)[C@H](CCCN)NC(=O)[C@H](Cc3ccc(OCC(=O)O)cc3)NC(=O)[C@H](Cc3ccc(-c4ccccc4)cc3)NC(=O)[C@H](Cc3ccc(OCC(=O)O)cc3)NC2=O)c1 [Compound 1780] ({CH2CO}-[Dap]Y(Carboxymethyl)D[Phe(3-Me)]Y(Carboxymethyl)[Bip]Y(Carboxymethyl)[Orn][dL][Dab][Cha]VNC-NH2; thioether N-14),11.3 nM
8,Cc1cccc(C[C@@H]2NC(=O)[C@H](CC(=O)O)NC(=O)[C@H](Cc3ccc(OCC(=O)O)cc3)NC(=O)[C@H](CN)NC(=O)CSC[C@@H](C(N)=O)NC(=O)[C@H](CC(=O)O)NC(=O)[C@H](C(C)C)NC(=O)[C@H](CC3CCCCC3)NC(=O)[C@H](CCN)NC(=O)[C@@H](CC(C)C)NC(=O)[C@H](CCCN)NC(=O)[C@H](Cc3ccc(OCC(=O)O)cc3)NC(=O)[C@H](Cc3ccc(-c4ccccc4)cc3)NC(=O)[C@H](Cc3ccc(OCC(=O)O)cc3)NC2=O)c1 [Compound 1781] ({CH2CO}-[Dap]Y(Carboxymethyl)D[Phe(3-Me)]Y(Carboxymethyl)[Bip]Y(Carboxymethyl)[Orn][dL][Dab][Cha]VDC-NH2; thioether N-14),14.2 nM
9,Cc1cccc(C[C@@H]2NC(=O)[C@H](CC(=O)O)NC(=O)[C@H](Cc3ccc(OCC(=O)O)cc3)NC(=O)[C@H](CN)NC(=O)CSC[C@@H](C(N)=O)NC(=O)[C@H](CCC(N)=O)NC(=O)[C@H](C(C)C)NC(=O)[C@H](CC3CCCCC3)NC(=O)[C@H](CCN)NC(=O)[C@@H](CC(C)C)NC(=O)[C@H](CCCN)NC(=O)[C@H](Cc3ccc(OCC(=O)O)cc3)NC(=O)[C@H](Cc3ccc(-c4ccccc4)cc3)NC(=O)[C@H](Cc3ccc(OCC(=O)O)cc3)NC2=O)c1 [Compound 1782] ({CH2CO}-[Dap]Y(Carboxymethyl)D[Phe(3-Me)]Y(Carboxymethyl)[Bip]Y(Carboxymethyl)[Orn][dL][Dab][Cha]VQC-NH2; thioether N-14),23.6 nM

# The next lines start with the values.
row,IC50,Structure (SMILES)
1,14.4 nM,Cc1cccc(C[C@@H]2NC(=O)[C@H](CC(=O)O)NC(=O)[C@H](Cc3ccc(OCC(=O)O)cc3)NC(=O)[C@H](CN)NC(=O)CSC[C@@H](C(N)=O)NC(=O)[C@H]([C@@H](C)O)NC(=O)[C@H](C(C)C)NC(=O)[C@H](CC3CCCCC3)NC(=O)[C@H](CCN)NC(=O)[C@@H](CC(C)C)NC(=O)[C@H](CCCN)NC(=O)[C@H](Cc3ccc(OCC(=O)O)cc3)NC(=O)[C@H](Cc3ccc(-c4ccccc4)cc3)NC(=O)[C@H](Cc3ccc(OCC(=O)O)cc3)NC2=O)c1 [Compound 1783] ({CH2CO}-[Dap]Y(Carboxymethyl)D[Phe(3-Me)]Y(Carboxymethyl)[Bip]Y(Carboxymethyl)[Orn][dL][Dab][Cha]VTC-NH2; thioether N-14)
2,25.8 nM,Cc1cccc(C[C@@H]2NC(=O)[C@H](CC(=O)O)NC(=O)[C@H](Cc3ccc(OCC(=O)O)cc3)NC(=O)[C@H](CN)NC(=O)CSC[C@@H](C(N)=O)NC(=O)[C@H](CCC(=O)O)NC(=O)[C@H](C(C)C)NC(=O)[C@H](CC3CCCCC3)NC(=O)[C@H](CCN)NC(=O)[C@@H](CC(C)C)NC(=O)[C@H](CCCN)NC(=O)[C@H](Cc3ccc(OCC(=O)O)cc3)NC(=O)[C@H](Cc3ccc(-c4ccccc4)cc3)NC(=O)[C@H](Cc3ccc(OCC(=O)O)cc3)NC2=O)c1 [Compound 1784] ({CH2CO}-[Dap]Y(Carboxymethyl)D[Phe(3-Me)]Y(Carboxymethyl)[Bip]Y(Carboxymethyl)[Orn][dL][Dab][Cha]VEC-NH2; thioether N-14)
3,23.3 nM,Cc1cccc(C[C@@H]2NC(=O)[C@H](CC(=O)O)NC(=O)[C@H](Cc3ccc(OCC(=O)O)cc3)NC(=O)[C@H]([C@@H](C)O)NC(=O)CSC[C@@H](C(N)=O)NC(=O)[C@H](CC(N)=O)NC(=O)[C@H](C(C)C)NC(=O)[C@H](CC3CCCCC3)NC(=O)[C@H](CCN)NC(=O)[C@@H](CC(C)C)NC(=O)[C@H](CCCN)NC(=O)[C@H](Cc3ccc(OCC(=O)O)cc3)NC(=O)[C@H](Cc3ccc(-c4ccccc4)cc3)NC(=O)[C@H](Cc3ccc(OCC(=O)O)cc3)NC2=O)c1 [Compound 1797] ({CH2CO}-TY(Carboxymethyl)D[Phe(3-Me)]Y(Carboxymethyl)[Bip]Y(Carboxymethyl)[Orn][dL][Dab][Cha]VNC-NH2; thioether N-14)
4,26.7 nM,Cc1cccc(C[C@@H]2NC(=O)[C@H](CC(=O)O)NC(=O)[C@H](Cc3ccc(OCC(=O)O)cc3)NC(=O)[C@H]([C@@H](C)O)NC(=O)CSC[C@@H](C(N)=O)NC(=O)[C@H](CC(=O)O)NC(=O)[C@H](C(C)C)NC(=O)[C@H](CC3CCCCC3)NC(=O)[C@H](CCN)NC(=O)[C@@H](CC(C)C)NC(=O)[C@H](CCCN)NC(=O)[C@H](Cc3ccc(OCC(=O)O)cc3)NC(=O)[C@H](Cc3ccc(-c4ccccc4)cc3)NC(=O)[C@H](Cc3ccc(OCC(=O)O)cc3)NC2=O)c1 [Compound 1798] ({CH2CO}-TY(Carboxymethyl)D[Phe(3-Me)]Y(Carboxymethyl)[Bip]Y(Carboxymethyl)[Orn][dL][Dab][Cha]VDC-NH2; thioether N-14)
